Literature values, collected in patent US7511156B2, “Analogs of Salinosporamide A” (President and Fellows of Harvard College, priority 2004, dated 2009).
Residues, ends and D or L forms follow the SMILES beside them. *: point of attachment. Cbz = O=C(OCc1ccccc1)*

Test system: PC12 cells
Conditions: Tsubuki et al. 1993

Q: For `CC(C)C[C@@H](C=O)NC(=O)[C@H](CC(C)C)NC(=O)[C@H](CC(C)C)NC(=O)OCc1ccccc1` [benzyloxycarbonyl (Z)-Leu-Leu-leucinal] (Cbz-Leu-Leu-Leu-aldehyde), which “optimal concentration inducing neurite outgrowth” value is on record?
A: 30 nM
